The results in this text go back to patent publication US12478628B2, “Germ cell nuclear factor ligands and methods of use thereof” (Saint Louis University, priority 2020, dated 2025).

Experiment [1] has as its target T1, chimeric Gal4-DBD human GCNF-LBD (Homo sapiens, UniProt Q15406).
T1 construct: expressed in transfected cells; host or cells: HEK293
T1 sequence (Q15406 249-480 limits assumed): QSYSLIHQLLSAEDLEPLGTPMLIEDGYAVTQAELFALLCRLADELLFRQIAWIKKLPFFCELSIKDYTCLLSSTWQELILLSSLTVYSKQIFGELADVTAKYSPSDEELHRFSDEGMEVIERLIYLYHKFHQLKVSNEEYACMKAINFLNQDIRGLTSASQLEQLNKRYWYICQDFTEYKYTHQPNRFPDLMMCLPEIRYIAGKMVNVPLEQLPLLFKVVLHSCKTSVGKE
The experiment is described as follows: Luciferase cotransfection reporter assay in HEK293 cells. In kind it is cell-based. Conditions: read-out: IC50, suppression of GCNF transactivation. As for the experimental part: Cell Culture, Cotransfection Assays, and QPCR Analysis. Cotransfection assays were performed in HEK293 cells as previously described (Griffett et al., 2013; Wu et al., 2003; Savkur et al., 2003). Briefly, for dose-response cotransfection assays, a chimeric Gal4-DBD human GCNF-LBD in the pBIND vector was cotransfected with pGL4.35[luc2P/9XGAL4UAS/Hygro] vector (Promega). All cotransfections were normalized to renilla (pGL4.73; Dual-Glo luciferase reagent; Promega) and subsequently DMSO for analysis.
A general note: A reporter such as luciferase makes a cellular process visible.

The test system of experiment [2] is i3 neurons differentiated from iPSCs. The experiment is described as follows: qPCR of pluripotency and neuronal markers after iPSC differentiation. In kind it is cell-based. Conditions: qPCR upon ligand treatment. As for the experimental part:
qPCR using iPSC samples and differentiated neurons samples to make sure the primers worked. These primers include: • Housekeeping genes for normalization: CYCLO, 36B4, GAPDH • Stem cell markers: OCT4, SOX2, NANOG, REX1 • Neuronal markers: MAP2, MAPT, TUBB3, NCAM1
iPSC Differentiation to Neurons. For growing neurons from iPSC cells, the method described by Femandopulle were employed (Femandopulle et al., 2018). Briefly, cells were treated with doxycycline to turn on expression of Neurogenin-2 (NGN2), which irreversibly sets these cells on the path of neuronal differentiation. The cells were treated with doxycycline for 3 days (changing media every day), and then re-plate the cells onto new plates coated with PLO. For each time point, 21 samples were prepared (DMSO and ligands 34 and 80 at different concentrations, in triplicate).
An overview of the experiment timeline is shown as well: • Day 0: Plate iPSC on matrigel-coated 12-well plates • Day 2: Treat cells −/+ ligands in iPSC media • Day 3: Refeed cells induction media +Doxycycline −/+ ligands to start neuronal differentiation (Day 0 of differentiation) • Day 4: Refeed cells induction media +Doxycycline −/+ ligands (Day 1 of differentiation) • Day 5: Refeed cells induction media +Doxycycline −/+ ligands (Day 2 of differentiation) • Day 6: Take pictures; Refeed cells neuronal media −/+ ligands (Day 3 of differentiation) • Day 7: Collect cells for RNA/qPCR (Day 4 of differentiation)
In general terms: Quantitative PCR measures a nucleic acid by following its amplification.

A further experiment deals with T2, GCNF LBD Y336F (Homo sapiens, UniProt Q15406, Y336F).
T2 construct: Human GCNF (NR6A1) LBD (residues 248-480); hexahistidine tag with 3C protease site; made in house; host or cells: E. coli BL(21) DE3
T2 sequence (Q15406 248-480 Y336F): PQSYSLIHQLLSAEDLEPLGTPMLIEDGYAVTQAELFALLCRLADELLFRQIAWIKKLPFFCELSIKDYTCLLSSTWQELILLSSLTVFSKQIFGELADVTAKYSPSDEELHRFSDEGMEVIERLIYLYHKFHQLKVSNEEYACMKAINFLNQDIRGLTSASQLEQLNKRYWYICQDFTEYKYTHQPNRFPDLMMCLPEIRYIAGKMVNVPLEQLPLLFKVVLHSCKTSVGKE
Put plainly: DSF of GCNF LBD mutant Y336F. The class given is binding. Conditions: 5 mM protein with 20 mM ligand as printed. As for the experimental part: DSF Assay. GCNF LBD (5 μM) were mixed with 1× Sypro orange (Invitrogen) in DSF buffer (50 mM HEPES, 50 mM KCl, 5 mM TCEP, 0.5 mM EDTA, pH 7.5). […] Ten microliters (10 μL)×5 replicates for each sample were plated on 384-well PCR microplate. No protein control and no ligand references were also run simultaneously in 5 replicates on the same plate. A total of 450 compounds (Life Chemicals) previously selected from a nuclear-receptor-biased library targeting REV-ERB were analyzed. Thermal stability was assessed on a Quantstudio 6 instrument (Biosystems) by ramping the temperature from 25° C. to 95° C. at 0.05° C./s and protein melt shifts were subsequently quantified by Boltzmann-derived melting temperature (Tm) using the Protein Thermal Shift (ThermoFisher) software. Positive hits were identified when a thermal shift (ΔTm) of at least 2° C. was observed.

Structures are written as SMILES.

`Cc1ccc(-n2ncc3c(N4CCOCC4)nc(NCc4ccco4)nc32)cc1` [Ligand 34, N-[(furan-2-yl)methyl]-1-(4-methylphenyl)-4-(morpholin-4-yl)-1H-pyrazolo[3,4-d]pyrimidin-6-amine]: the IC50 in experiment [1] was found to be 1100 nM. Besides, the “expression of pluripotency marker Sox2” value in experiment [2] is listed as “substantially decreased”. Moreover, the “effect of substitution Y336F on ligand binding (DSF)” value at GCNF LBD Y336F is reported as “substantially affect the binding”.
`O=C(Cn1cc(S(=O)(=O)c2ccccc2)c2ccccc21)N1CCc2ccccc21` [Ligand 80, 2-[3-(benzenesulfonyl)-1H-indol-1-yl]-1-(2,3-dihydro-1H-indol-1-yl)ethan-1-one]: in experiment [1], the half-maximal inhibitory concentration (IC50) came to 317 nM. Further, in experiment [2], the “expression of neuronal marker MAPT” value is given as “substantially increased” and the “expression of pluripotency marker Sox2” value is on record as “substantially decreased”. Also, the “effect of substitution Y336F on ligand binding (DSF)” value on GCNF LBD Y336F is given as “only F361A significantly affect the binding of 80”.

A word on the IC50: it is the concentration at which inhibition is half-maximal.
